According to PMC8375220 (Peptides, 2021):
Read-outs that look alike come from different tables or passages of the source. Where no end group is shown, it is not given here.

Legend:
[1] = system: SARS-CoV-2 spike pseudovirions
[2] = system: Human umbilical vein endothelial cells (HUVECs); experiment: HUVEC viability; type: cell-based
BALB/c mice = experiment: In vivo toxicity after intranasal administration; set-up: species or system mouse; details: 2.5 mg/kg single intranasal dose
SARS-CoV-2 spike RBD = SARS-CoV-2 spike RBD (Severe acute respiratory syndrome coronavirus 2, UniProt P0DTC2); experiment: biochemical; type: binding
[3] = system: SARS-CoV-2 spike pseudovirion; details: cited from earlier work

ACE2
IC50, inhibition of SARS-CoV-2 spike pseudovirion infection [1]: 0.067 µg/mL

GKGDFRI [GK-7, GKGDFRI]
HUVEC survival ([2]; 24 h, doses up to 200 μg/mL, CCK-8): did not affect cell survival
fold of highest non-cytotoxic dose (200 μg/mL) over pseudovirion IC50 ([2]; HUVECs 24 h versus IC50 2.96 μg/mL): approximately 68 fold
IC50, inhibition of SARS-CoV-2 spike pseudovirion infection ([1]; spike pseudovirions, 12 h): 2.96 µg/mL
effect on ALT, AST, blood urea and creatinine contents (BALB/c mice): minor effects
HE staining of major organs (BALB/c mice; day 7): no pathological changes
effect on RBC, WBC and platelet counts in the blood (BALB/c mice; day 7): minor effects
effect on organ index (heart, liver, spleen, lungs, kidneys) (BALB/c mice; day 7): minor effects
Kd (SARS-CoV-2 spike RBD): 25.1 nM

LL37
IC50, SARS-CoV-2 spike pseudovirion infection [3]: 4.74 µg/mL
